# Assay results reported in US20220403326A1, “MEDIA FORMULATIONS AND METHODS FOR PRODUCING PROGENITOR T CELLS” (priority 2019, published 2022).
# Columns and labels:
# Format in all cases: cell-based, human
# CD34+ HSPCs [1] = test: Surface expression of CD117, CD123 and CD127 after 24 hours of TNFα stimulation; conditions: TNFα stimulation for 24 hours
# Method: Prior to analysis via flow cytometry, adherent cells were collected from DL4+VCAM-1 surfaces using vigorous pipetting or TrypLE Express Enzyme (ThermoFisher) for 5 minutes at 37° C. Afterwards, cells were rinsed twice with Hanks Balanced Salt Solution (ThermoFisher) plus 2% FBS (HF). Surface antibodies were stained at 1:100-1:300 in HF at room temperature for 15 minutes. Cells were then rinsed once with HF and resuspended in HF with 1:1000 7-AAD to exclude dead cells. Data was acquired with a BD Fortessa™ and compensation and gating was performed with FlowJo™ software and further analysis with the R programming language (version 3.3.2).
# Next, the expression of CD117 (c-kit; SCF receptor), CD123 (IL-3 receptor) and CD127 (IL-7 receptor) on CD34+ HSPCs was evaluated in the presence or absence of TNFα stimulation for 24 hours.
# HSPCs = test: DL4 coating concentration titration, 14-day culture, with or without TNFα; conditions: lowest DL4 concentration tested; 14 days; with VCAM-1
# Method: Tissue culture 96-well plates were coated with DL4-Fc and VCAM-1-Fc (R&D Systems) overnight at 4° C. or for 3-4 hours at room temperature. To coat, DL4 and VCAM-1 were diluted to 15 μg/ml and 2.5 μg/ml, respectively, in 50 μl of phosphate-buffered saline (PBS), resulting in a coating concentration of approximately 24 ng/mm2 of DL4-Fc and 4 ng/mm2 of VCAM-1-Fc. For titration experiments, the concentration of DL4 or VCAM-1 was adjusted accordingly while maintaining a 50 μl volume of PBS. Experiments using 384-well plates scaled were coated similarly but with 16 μl of PBS. Wells were washed once with PBS prior to seeding cells to remove unbound DL4-Fc protein that inhibits Notch signaling.^6
# In parallel with the Notch pathway inhibition experiment described above, HSPCs were also seeded on DL4+VCAM-1 for 14 days with decreasing concentrations of DL4 (FIG. 4d). […] Representative flow cytometry plots showing differential proT cell induction with decreasing DL4 concentration in the presence or absence of TNFα are shown in FIG. 4f.
# CD34+ HSPCs [2] = test: Timed addition of TNFα (day 0, 1, 2 or 3), 7-day culture on DL4+VCAM-1; conditions: late addition of TNFα; day 7
# Method: (§1) For experiments 7 days or longer, HSPCs were seeded at 63-125 cells/mm^2 (equivalent to 2000-4000 cells/well of a 96-well plate) on DL4+VCAM-1-coated surfaces. Experiments shorter than 7 days (CFSE and qPCR) were seeded at 470-780 cells/mm^2 (equivalent to 15,000-25,000 cells/well of a 96-well plate) to provide enough cells for analysis. Cells were cultured in 100 μl/well (32 μl/well for 384-well plate) of Iscove's Modified Eagle Medium (IMDM) supplemented with 20% bovine serum albumin, insulin, and transferrin (BIT 9500) serum substitute (Stemcell Technologies), 1 μg/ml low-density lipoprotein (LDL; Stemcell Technologies), 60 μM ascorbic acid (Sigma), 24 μM 2-mercaptoethanol (Sigma), and 1% penicillin-streptomycin (P/S; Invitrogen). The cytokines used in control condition were SCF, FLT3L, TPO, and IL-7 (also known as the “4F cytokines”, all of which were obtained from R&D Systems), each at a concentration of 20 ng/ml or 100 ng/ml as indicated in the text. All other cytokines were purchased from R&D Systems and used in the combinations and concentrations indicated in the text. For certain experiments, the γ-secretase inhibitor (2S)-N-[(3,5-Difluorophenyl)acetyl]-L-alanyl-2-phenyl] glycine 1,1-dimethylethyl ester (DAPT) or dimethyl sulfoxide (DMSO) was added to media at the concentrations indicated in the text. […]
# CD34+ HSPCs [3] = test: γ-secretase inhibitor (GSI) titration, 14-day culture on DL4+VCAM-1; conditions: increasing concentrations of GSI; 14 days
# Method: as §1
# CD34+ HSPCs [4] = test: TPO requirement with or without TNFα, 14-day culture; conditions: 14 days
# Method: To assess the requirement for TPO in T lineage development, CD34+ HSPCs were analyzed by flow cytometry after 14 days in the presence or absence of TNFα, and further in the presence or absence of TPO.
substance,measurement,setting,value
TNFα,frequency of CD123+ cells,CD34+ HSPCs [1],significant increase
same,median fluorescent intensity (MFI) of CD123,CD34+ HSPCs [1],increase in the median fluorescent intensity
same,DL4 coating concentration down to which CD7+CD5+ proT cell development is maintained,HSPCs,≤ 2 ng/mm^2
same,CD7+ lymphoid cells,CD34+ HSPCs [2],decrease in CD7+ lymphoid cells
same,CD14/33+ myeloid lineage cells,CD34+ HSPCs [2],increase in CD14/33+ myeloid lineage cells
same,CD7+CD5+ proT cell generation under Notch inhibition,CD34+ HSPCs [3],capable of maintaining CD7+CD5+ proT cell generation with a higher concentration of GSI than the control condition
same,T lineage development in the absence of TPO,CD34+ HSPCs [4],supports T lineage development in the absence of TPO
